# “And” between values parts separate entries of the source, which are not always exact repeats. Equal values may be shown once.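 The compound was tested at five concentrations on cells cultured in 96-well plates, with a 48-hour exposure period. Abbreviation: GI50, concentration required for 50% inhibition of growth. The concentration for full growth arrest is given as TGI.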
# What was measured:
# Assay in all cases: NCI tumour cell line growth inhibition, 48 h
# OVCAR-3 ovarian = tested on: OVCAR-3 ovarian
# NCI-H522 lung = tested on: NCI-H522 lung
# HL-60(TB) leukemia = tested on: HL-60(TB) leukemia
# HCT-15 colon = tested on: HCT-15 colon
# LOX IMVI melanoma = tested on: LOX IMVI melanoma
# 786-0 renal = tested on: 786-0 renal
# OVCAR-4 ovarian = tested on: OVCAR-4 ovarian
# SW-620 colon = tested on: SW-620 colon
# UACC-62 melanoma = tested on: UACC-62 melanoma
# ACHN renal = tested on: ACHN renal
Structure (SMILES),GI50 (OVCAR-3 ovarian),TGI (OVCAR-3 ovarian),GI50 (NCI-H522 lung),TGI (NCI-H522 lung),GI50 (HL-60(TB) leukemia),TGI (HL-60(TB) leukemia),GI50 (HCT-15 colon),TGI (HCT-15 colon),GI50 (LOX IMVI melanoma),TGI (LOX IMVI melanoma),GI50 (786-0 renal),TGI (786-0 renal),GI50 (OVCAR-4 ovarian),TGI (OVCAR-4 ovarian),GI50 (SW-620 colon),TGI (SW-620 colon),GI50 (UACC-62 melanoma),TGI (UACC-62 melanoma),GI50 (ACHN renal),TGI (ACHN renal)
FC(F)(F)c1ccc(-c2cnc(-n3cc(COCCN4CCCCC4)nn3)nc2NC2CCCCCC2)cc1,3.98 µM,7.48 µM,3.93 µM,7.99 µM,3.84 µM,8.26 µM,4.02 µM,8.66 µM,3.89 µM,7.88 µM,3.73 µM,7.28 µM,3.11 µM,6.35 µM,3.79 µM,7.95 µM,3.88 µM,7.6 µM,4.53 µM,8.39 µM
Cc1cn(C2C=CC(CO)O2)c(=O)[nH]c1=O (stereo not given),–,> 1000 µM,–,> 1000 µM,–,> 1000 µM,–,> 1000 µM,–,> 1000 µM,–,> 1000 µM,–,> 1000 µM,–,> 1000 µM,–,> 1000 µM,–,> 1000 µM
COC1=C(C)C(=O)c2c(c(CCCl)c3n2CCC3O)C1=O (stereo not given),2.19 µM,6.72 µM,0.224 µM,1.17 µM,3.34 µM,30.4 µM,0.22 µM,4.4 µM,0.592 µM,5.23 µM,0.81 µM,6.5 µM,9.36 µM,39 µM,1.09 µM,15.8 µM,0.319 µM,1.28 µM,0.327 µM,6.83 µM
CCOc1cc(Br)c(C(C)NC(=O)c2cccc(OC)c2)cc1OCC (stereo not given),5.42 µM,38.7 µM,6.83 µM,54.4 µM,3.8 µM,> 61.3 µM,5.82 µM,> 100 µM,22.8 µM,> 100 µM,20.4 µM,> 100 µM,13.2 µM,> 93.5 µM,4.6 µM,> 100 µM,6.61 µM,> 100 µM,21.1 µM,> 100 µM
CC1=C(/C=C/C(C)=C/C=C/C(C)=C/C=N/NC(=S)NC(=S)N/N=C/C=C(C)/C=C/C=C(C)/C=C/C2=C(C)CCCC2(C)C)C(C)(C)CCC1,1.47 µM and 0.802 µM,4.92 µM and 1.53 µM,0.286 µM and 0.181 µM,1.07 µM and 0.795 µM,1.77 µM and 1 µM,9.22 µM and 4.3 µM,2.68 µM and 1.89 µM,9.82 µM and 8.2 µM,1.8 µM and 1.11 µM,6.53 µM and 3.02 µM,1.75 µM and 0.944 µM,5.09 µM and 1.85 µM,1.74 µM and 1.22 µM,7.84 µM and 5.4 µM,1.44 µM and 0.86 µM,5.42 µM and 1.74 µM,1.48 µM and 0.89 µM,6.09 µM and 2.43 µM,5.14 µM and 2.3 µM,11.4 µM and 7.9 µM
Cn1nc(-c2ccc(Cl)cc2)nc2c(=O)n(C)c(=O)nc1-2,0.275 µM,1.2 µM,0.864 µM,1.67 µM,1.11 µM,3.69 µM,0.766 µM,1.53 µM,0.601 µM,1.61 µM,1.43 µM,9.65 µM,1.2 µM,3.3 µM,1.4 µM,6.46 µM,0.745 µM,1.68 µM,1.13 µM,3.1 µM
COc1cccc(-c2ccc3c(c2)C2CCN(Cc4ccccc4)C3C2)c1 (stereo not given),4.49 µM,17 µM,4.54 µM,20.4 µM,5.71 µM,21 µM,4.86 µM,19.7 µM,10.2 µM,26.8 µM,13.9 µM,36.1 µM,5.71 µM,58.2 µM,4.59 µM,20.3 µM,8.48 µM,22 µM,11.9 µM,38.1 µM
CC(C)(C)c1ccc(OC(=O)Nc2ccc(O)c(C(=O)O)c2)cc1,–,> 100 µM,–,> 100 µM,–,> 100 µM,–,> 100 µM,–,> 100 µM,–,> 100 µM,–,> 100 µM,–,> 100 µM,–,> 100 µM,–,> 100 µM
Brc1ccc2[nH]cc(-c3nc(-c4c[nH]c5ncccc45)cs3)c2c1,5.48 µM,18.6 µM,3.53 µM,10.8 µM,4.29 µM,> 100 µM,2.41 µM,6.86 µM,2.46 µM,11 µM,1.88 µM,4.49 µM,3.31 µM,20.8 µM,3.79 µM,14.1 µM,3.64 µM,16.6 µM,2.66 µM,12.9 µM
C[N+](C)(C)CC1CCC/C1=N/O (stereo not given),–,> 100 µM,–,> 100 µM,–,35.3 µM,–,38.8 µM,–,38.4 µM,–,44.5 µM,–,> 100 µM,–,19.5 µM,–,> 100 µM,–,> 100 µM
Clc1ccc(-c2nnc(-c3cccc4ccccc34)o2)cc1Cl,–,> 100 µM,–,> 100 µM,–,> 100 µM,–,> 100 µM,–,> 100 µM,–,> 100 µM,–,> 100 µM,–,> 100 µM,–,> 100 µM,–,> 100 µM
CCC(c1ccc(OC)cc1)C(CC)c1ccc(O)c(CN2CCN(C)CC2)c1 (stereo not given),4.1 µM,14.3 µM,4.74 µM,17 µM,2.62 µM,5.9 µM,2.66 µM,7.67 µM,2.48 µM,7.64 µM,3.4 µM,10.9 µM,7.22 µM,22.4 µM,3.15 µM,10 µM,1.99 µM,4.16 µM,9.99 µM,22.9 µM
CCCCCCCCCCCCCCCCNCCCN(C)CCCN,–,35.9 µM,–,32.3 µM,–,42.4 µM,–,32.7 µM,–,42 µM,–,28.9 µM,–,32.9 µM,–,36.3 µM,–,33.2 µM,–,34.9 µM
O=[N+]([O-])c1ccc(Oc2nc(Nc3ccc(O[C@H]4CO[C@H]5[C@@H]4OC[C@@H]5O)c(Cl)c3)ncc2F)c(Cl)c1,1.4 µM,5.83 µM,1.17 µM,5.6 µM,1.53 µM,4.11 µM,2.37 µM,10.7 µM,0.667 µM,2.28 µM,1.3 µM,4.24 µM,1.19 µM,5.73 µM,1.38 µM,12.6 µM,0.843 µM,2.27 µM,0.79 µM,4.55 µM

# — PubChem BioAssay (NCI)
